# How the values were obtained:
# OC3-IV2 cells = test: Oral orthotopic OC3-IV2 xenograft mice model; type: in vivo, CB17/lcr-Prkdc^scid/CrlNarl mice; settings: 2 mg/kg intraperitoneal once every 3 days, day 0-18
# Protocol: In this example, the anti-tumor effect of isoplumbagin in xenograft mice model was explored. In oral orthotopic xenograft CB17/lcr-Prkdc^scid/CrlNarl mice model, 1×10^6 OC3-IV2 cells were harvested and re-suspended in 100 μl PBS. The cells were injected through the oral buccal mucosa into six-week-old male CB17/lcr-Prkdc^scid/CrlNarl mice (National Laboratory Animal Center, Taiwan). When the tumor size in oral buccal reached approximately 25 mm^3 at 14 days after inoculation of the OC3-IV2 cells, mice were randomly assigned into two groups (n=3 per group): vehicle (DMSO) control group and 2 mg/kg isoplumbagin group. Treatments were given via intraperitoneal injection once every 3 days in the morning for 2 weeks. During this period, mice weights and tumor volumes (length×width^2/2) were recorded every 3 days. At the end of the study (on day 18), the mice were sacrificed by carbon dioxide asphyxiation. […]
# FIGS. 7A-7D show the anti-tumor effect of isoplumbagin in xenograft mice model. […] Tumor volume (FIG. 7A) and body weight (FIG. 7B) were measured from day 0-18 after treatment. […]
# [1] = system: prostate cancer cells (PC3); test: MTT survival assay, PC3; type: cell-based; settings: Homo sapiens, 48 h, read-out: IC50, survival rate
# Protocol: According to the present invention, human prostate cancer cell line PC3 cells were obtained from ATCC (ATCC® ^CRL-1435™) and maintained in DMEM medium supplemented with 10% FBS, 1% L-Gln and 1% AA. Cells were maintained in an atmosphere containing 5% CO2 at 37° C., and the culture medium was replaced every 2 days.
# Isoplumbagin (AKOS006277326, acquired from AKos GmbH, Steinen, Germany) was dissolved in dimethyl sulfoxide (DMSO) and added to the medium, so that the final concentration of DMSO was less than 0.1%. The survival rate of isoplumbagin on OC3-IV2, U87, H1299 and PC3 cell lines was determined using the 3-(4,5-dimethylthiazol-2-yl)-2,5-diphenyltetrazolium bromide (MTT; Sigma-Aldrich) assays. 3×10^3 cells/well were seeded in 96-well plates. After incubation for 24 h, cells were treated with isoplumbagin at various concentrations (0, 1, 5, 10, 25, 50 and 100 μM) and incubated for a further 48 h. At the end of treatment, 10 μL 5 mg/mL MTT was added to each well. After incubation at 37° C. for 3 h, medium was removed and DMSO was added to each well to dissolve reduced MTT product formazan. The absorbance of dissolved formazan was measured at 550 nm wavelengths by a spectrophotometer. […]
# [2] = system: oral squamous cell carcinoma cells (OC3-IV2); test: Oxygen consumption rate in intact cells (O2k Oxygraph); type: cell-based, human; settings: 2.5 μM, one independent experiment
# Protocol: Oxygen consumption rate (OCR) in intact cells suspension was measured by O2k Oxygraph (Oroboros Instruments). DMSO or 2.5 μM isoplumbagin treated cells were detached from the plate by trypsinization and suspended at 5×10^5 cells/ml in DMEM/KSFM medium supplemented with 10% FBS into the O2k chambers. Oxygen consumption rate of DMSO or isoplumbagin treated cells samples were measured by adding 0.5 μM oligomycin, 0.5 μM FCCP, 1 μM rotenone and 1 μM antimycin A.
# FIGS. 6A and 6B show the inhibitory effect of isoplumbagin on mitochondrial function and complex IV activity of oral squamous cell carcinoma cells (OC3-IV2). Oxygen consumption rate (OCR) of OC3-IV2 cells treated with DMSO (as control) or 2.5 μM isoplumbagin were measured by Oroboros instruments (FIG. 6A). […] OC3-IV2 cells treated with DMSO or 2.5 μM isoplumbagin were permeabilized with 5 μM digitonin (Dig) and added indicated substrates and inhibitors, and then mitochondria complex I/IV activity were determined by Oroboros instruments (FIG. 6B). Glu/Mal: glutamate (10 mM) and malate (2 mM), ADP (5 mM), Omy: oligomycin (0.5 μM), FCCP (0.5 nM), Rot: rotenone (1 μM), Ama: antimycin A (2 μM), TMPD: tetramethyl-p-phenylenediamine (0.1 mM), Asc: ascorbate (0.4 mM) and NaN3 5 mM. Data from three independent experiments are presented as mean ±SEM (*P<0.05, paired Student's t-test).
# NQO1 = target: T1, NQO1 (Homo sapiens, UniProt P15559); test: NQO1 enzymatic activity assay (substrate reduction with NADH and WST1); type: biochemical; settings: cytosolic fractions of OC3-IV2 cells; isoplumbagin 5 μM and 10 μM, menadione 1X and 2X
# T1 construct: endogenous in cells; host or cells: OC3-IV2 (human oral squamous cell carcinoma), cytosolic fraction / lysate supernatant
# Protocol: FIG. 4 proves that isoplumbagin is a substrate of NQO1. The cytosolic fractions of OC3-IV2 cells were used for the NQO1 enzymatic activity assay. The NQO1 enzyme activity was calculated by measuring the simultaneous reduction of menadione or isoplumbagin with cofactor NADH and WST1 (a highly sensitive tetrazolium reagent) which leads to increased absorbance at 450 nm. NQO1 activity assay kit (#ab184867) was purchased from Abcam (Cambridge, Mass., USA). OC3-IV2 cells were lysed with 1X extraction buffer containing 1 mM phenylmethylsulfonyl fluoride (PMSF) for 15 min on ice, and then centrifuged at 17,000×g at 4° C. for 20 min. The supernatant was collected and then the protein concentration of each sample was determined by BCA assays (Santa Cruz Biotechnology). Diluted sample and reaction buffer were added into 96-wells plate containing menadione (1X and 2X) or different concentrations of isoplumbagin (5 μM and 10 μM) with cofactor NADH and WST1. The absorbance of reduced WST1 was measured at 450 nm wavelengths by a spectrophotometer. Data from three independent experiments are presented as mean ±SEM (*P<0.05 compared with no substrate, paired Student's t-test).
# T1 sequence (P15559 whole entry): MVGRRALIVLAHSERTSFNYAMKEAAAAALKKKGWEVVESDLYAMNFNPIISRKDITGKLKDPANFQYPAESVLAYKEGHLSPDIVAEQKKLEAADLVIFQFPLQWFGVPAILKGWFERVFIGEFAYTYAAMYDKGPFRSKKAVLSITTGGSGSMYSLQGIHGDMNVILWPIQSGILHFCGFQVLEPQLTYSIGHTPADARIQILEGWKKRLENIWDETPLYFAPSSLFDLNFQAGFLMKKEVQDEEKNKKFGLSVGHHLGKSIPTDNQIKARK
smiles,measurement,setting,value
"CC1=CC(=O)c2cccc(O)c2C1=O [isoplumbagin, 5-hydroxy-3-methyl-1,4-naphthoquinone]","tumor growth (tumor volume, tumor weight)",OC3-IV2 cells,can effectively inhibit tumor growth
same,IC50,[1],1.13 µg/mL
same,mitochondrial function (oxygen consumption rate),[2],can reduce mitochondrial function
same,"substrate of NQO1 (reduction with NADH and WST1, absorbance at 450 nm)",NQO1,substrates of NQO1
